Reference: ChEMBL document CHEMBL5465560, “Selectivity Literature for EUbOPEN Chemogenomic Library” (2024)

Key:
[1] = target: Serine/threonine-protein kinase OSR1 (Homo sapiens) (UniProt O95747); test: Selectivity interaction (KinomeScan (DiscoverX)) EUB0000595a OXSR1; details: at 10 µM
[2] = target: Bromodomain-containing protein 4 (Homo sapiens, UniProt O60885); test: Selectivity interaction (Kinase panel (DSF assay)) EUB0001558a BRD4
[3] = target: T1, SNF-related serine/threonine-protein kinase (Homo sapiens) (UniProt Q9NRH2); test: Selectivity interaction (KinomeScan (DiscoverX)) EUB0000045b SNRK
T1 sequence (whole entry): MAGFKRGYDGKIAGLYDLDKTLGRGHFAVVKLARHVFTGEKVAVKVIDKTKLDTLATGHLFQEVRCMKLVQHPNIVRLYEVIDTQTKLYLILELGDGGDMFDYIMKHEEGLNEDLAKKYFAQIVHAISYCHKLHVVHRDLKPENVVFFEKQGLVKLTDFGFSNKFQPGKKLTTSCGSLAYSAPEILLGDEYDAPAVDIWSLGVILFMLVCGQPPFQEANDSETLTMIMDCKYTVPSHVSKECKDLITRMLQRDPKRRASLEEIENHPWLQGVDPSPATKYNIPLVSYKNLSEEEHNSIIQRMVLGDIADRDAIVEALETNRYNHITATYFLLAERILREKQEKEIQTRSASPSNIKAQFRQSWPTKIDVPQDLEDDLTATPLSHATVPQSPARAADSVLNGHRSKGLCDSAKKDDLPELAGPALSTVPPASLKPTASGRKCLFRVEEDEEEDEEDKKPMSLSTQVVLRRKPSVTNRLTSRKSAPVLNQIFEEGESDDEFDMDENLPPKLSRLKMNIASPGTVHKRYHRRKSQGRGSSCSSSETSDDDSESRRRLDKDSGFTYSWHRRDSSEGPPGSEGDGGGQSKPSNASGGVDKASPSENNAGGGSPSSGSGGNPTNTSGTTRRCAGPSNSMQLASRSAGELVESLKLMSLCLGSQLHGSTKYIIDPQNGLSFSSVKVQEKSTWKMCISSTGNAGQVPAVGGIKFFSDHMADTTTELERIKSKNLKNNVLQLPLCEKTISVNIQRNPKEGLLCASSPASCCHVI

[4] = target: T2, Serine/threonine-protein kinase Nek9 (Homo sapiens) (UniProt Q8TD19); test: Selectivity interaction (ActivX KiNativ screen (ex vivo kinase selectivity in human PBMCs)) EUB0001619a NEK9; type: cell-based; details: PBMC, at 1 µM
T2 sequence (whole entry): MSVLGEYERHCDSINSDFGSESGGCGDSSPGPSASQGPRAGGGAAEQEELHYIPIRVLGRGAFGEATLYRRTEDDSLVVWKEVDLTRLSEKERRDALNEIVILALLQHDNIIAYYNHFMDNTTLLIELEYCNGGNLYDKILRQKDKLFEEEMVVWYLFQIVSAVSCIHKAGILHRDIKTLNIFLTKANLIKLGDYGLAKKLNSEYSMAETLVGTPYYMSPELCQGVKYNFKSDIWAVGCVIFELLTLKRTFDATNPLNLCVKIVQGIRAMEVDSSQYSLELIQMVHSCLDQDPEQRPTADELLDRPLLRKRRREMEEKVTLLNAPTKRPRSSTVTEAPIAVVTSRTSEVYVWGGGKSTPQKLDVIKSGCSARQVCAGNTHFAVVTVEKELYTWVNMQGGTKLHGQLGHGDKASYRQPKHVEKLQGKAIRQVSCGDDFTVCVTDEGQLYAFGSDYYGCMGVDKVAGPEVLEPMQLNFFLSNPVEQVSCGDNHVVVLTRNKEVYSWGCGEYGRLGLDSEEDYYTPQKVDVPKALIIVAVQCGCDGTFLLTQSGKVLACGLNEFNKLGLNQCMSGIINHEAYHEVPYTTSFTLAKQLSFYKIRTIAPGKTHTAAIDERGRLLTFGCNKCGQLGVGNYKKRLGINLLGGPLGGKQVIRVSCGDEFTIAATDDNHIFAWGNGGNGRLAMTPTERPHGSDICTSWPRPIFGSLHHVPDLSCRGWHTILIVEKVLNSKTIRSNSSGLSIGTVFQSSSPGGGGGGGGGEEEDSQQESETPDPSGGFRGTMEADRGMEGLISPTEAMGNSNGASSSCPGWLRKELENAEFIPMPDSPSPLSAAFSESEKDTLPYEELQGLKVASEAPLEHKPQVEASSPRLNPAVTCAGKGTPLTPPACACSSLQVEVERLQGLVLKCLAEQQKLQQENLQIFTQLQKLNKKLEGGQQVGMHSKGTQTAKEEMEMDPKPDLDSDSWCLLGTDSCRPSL

[5] = target: STE20-like serine/threonine-protein kinase (Homo sapiens, UniProt Q9H2G2); test: Selectivity interaction (ActivX KiNativ screen (ex vivo kinase selectivity in human PBMCs)) EUB0001619a SLK; type: cell-based; details: PBMC, at 1 µM
Chain of STE20-like serine/threonine-protein kinase (Q9H2G2 whole entry, looked up): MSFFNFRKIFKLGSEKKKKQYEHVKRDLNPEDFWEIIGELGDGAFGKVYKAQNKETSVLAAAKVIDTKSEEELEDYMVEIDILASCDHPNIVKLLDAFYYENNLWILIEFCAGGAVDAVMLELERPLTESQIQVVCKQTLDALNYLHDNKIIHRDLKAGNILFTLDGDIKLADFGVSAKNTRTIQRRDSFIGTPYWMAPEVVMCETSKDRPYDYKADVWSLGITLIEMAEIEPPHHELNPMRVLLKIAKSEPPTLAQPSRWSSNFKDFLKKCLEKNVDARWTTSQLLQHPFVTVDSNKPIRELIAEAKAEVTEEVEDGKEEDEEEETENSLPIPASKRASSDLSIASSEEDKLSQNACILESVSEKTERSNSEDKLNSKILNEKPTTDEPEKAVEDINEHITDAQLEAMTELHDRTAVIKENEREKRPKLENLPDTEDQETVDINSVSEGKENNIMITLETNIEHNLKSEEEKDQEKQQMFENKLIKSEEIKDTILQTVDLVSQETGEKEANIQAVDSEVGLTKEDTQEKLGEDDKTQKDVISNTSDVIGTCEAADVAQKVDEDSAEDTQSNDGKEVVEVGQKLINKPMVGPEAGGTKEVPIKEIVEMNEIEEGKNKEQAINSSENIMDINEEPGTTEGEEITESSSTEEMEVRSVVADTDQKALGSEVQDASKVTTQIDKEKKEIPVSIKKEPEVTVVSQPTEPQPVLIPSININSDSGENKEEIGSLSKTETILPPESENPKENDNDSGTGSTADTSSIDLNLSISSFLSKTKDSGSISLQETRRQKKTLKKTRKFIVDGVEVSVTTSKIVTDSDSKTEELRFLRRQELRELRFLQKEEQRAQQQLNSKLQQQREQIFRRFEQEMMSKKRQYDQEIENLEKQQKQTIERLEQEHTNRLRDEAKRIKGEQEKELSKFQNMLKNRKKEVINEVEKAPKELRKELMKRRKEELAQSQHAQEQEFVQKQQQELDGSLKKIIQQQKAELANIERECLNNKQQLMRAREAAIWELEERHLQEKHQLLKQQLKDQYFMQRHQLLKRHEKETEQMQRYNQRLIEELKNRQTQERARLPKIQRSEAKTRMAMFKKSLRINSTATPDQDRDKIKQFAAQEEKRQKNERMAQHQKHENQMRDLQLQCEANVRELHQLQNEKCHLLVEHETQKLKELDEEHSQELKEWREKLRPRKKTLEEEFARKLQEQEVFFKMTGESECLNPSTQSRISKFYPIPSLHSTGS

[6] = target: MAP kinase-activated protein kinase 2 (Homo sapiens, UniProt P49137); test: Selectivity interaction (KinomeScan (DiscoverX)) EUB0001619a MAPKAPK2; details: at 1 µM
Chain of MAP kinase-activated protein kinase 2 (P49137 whole entry, looked up): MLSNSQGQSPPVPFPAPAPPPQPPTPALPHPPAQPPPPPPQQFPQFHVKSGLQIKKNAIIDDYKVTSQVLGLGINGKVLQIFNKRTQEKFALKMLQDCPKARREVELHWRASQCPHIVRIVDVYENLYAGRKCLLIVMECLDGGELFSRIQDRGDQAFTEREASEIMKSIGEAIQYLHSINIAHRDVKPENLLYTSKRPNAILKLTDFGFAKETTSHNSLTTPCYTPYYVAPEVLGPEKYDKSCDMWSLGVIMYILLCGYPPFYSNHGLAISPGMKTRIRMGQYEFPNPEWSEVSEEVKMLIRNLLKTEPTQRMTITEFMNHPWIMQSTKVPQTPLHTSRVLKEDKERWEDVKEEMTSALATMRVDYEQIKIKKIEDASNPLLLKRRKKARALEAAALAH

Chain of Serine/threonine-protein kinase OSR1 (Homo sapiens) (O95747 2-527 limits assumed): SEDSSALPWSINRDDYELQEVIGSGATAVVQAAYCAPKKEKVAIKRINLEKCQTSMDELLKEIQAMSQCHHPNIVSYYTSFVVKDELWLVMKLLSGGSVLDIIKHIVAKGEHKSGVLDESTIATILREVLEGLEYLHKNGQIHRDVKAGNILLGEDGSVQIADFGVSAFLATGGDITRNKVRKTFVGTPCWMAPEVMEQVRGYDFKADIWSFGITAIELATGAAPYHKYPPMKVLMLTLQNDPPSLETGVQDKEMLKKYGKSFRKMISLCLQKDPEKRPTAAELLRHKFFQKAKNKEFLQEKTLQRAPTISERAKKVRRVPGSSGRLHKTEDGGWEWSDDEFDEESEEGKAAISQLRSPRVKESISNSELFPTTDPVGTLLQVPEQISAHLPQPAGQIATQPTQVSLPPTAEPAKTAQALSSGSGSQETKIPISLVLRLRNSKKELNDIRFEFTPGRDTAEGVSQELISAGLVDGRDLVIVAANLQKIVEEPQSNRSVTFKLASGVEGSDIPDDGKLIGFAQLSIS

`COCC(=O)NC/C=C/c1ccc2ncnc(Nc3ccc(Oc4ccc(C)nc4)c(C)c3)c2c1` [CP-724714] showed a % of control [1] of 100%.

In the case of `CC(C)(O)[C@H](F)CN1Cc2cc(NC(=O)c3cnn4cccnc34)c(N3CCOCC3)cc2C1=O`, the dTM [2] was 0.4 K.

`C=CC(=O)Nc1cc(-n2c(=O)ccc3cnc4ccc(-c5ccc(NS(C)(=O)=O)cc5)cc4c32)ccc1C` showed a % of control ([3]; at 1 µM) of 100% and a % of control ([3]; at 10 µM) of 58%.

`N#Cc1cccc(-c2c[nH]c3ncnc(N4CCOCC4)c23)c1` gave a % of inhibition [4] of 3%, a % of inhibition [5] of 66% and a % of control [6] of 100%.
